Measurements reported in US20170007663A1, “METHODS AND COMPOSITIONS FOR TREATING AND […] DYSFUNCTION” (CORNELL UNIVERSITY, priority 2013, published 2017).
Non-standard residues stand in square brackets, D forms with d. No end group written: not given here.

How the values were obtained:
mu-opioid receptor = mu-opioid receptor (Homo sapiens, UniProt P35372); settings: stated without a described test; cited from earlier work
[1] = system: several mammalian cell types; settings: cited from earlier work
[2] = system: cerebral metabolic rate of oxygen (CMRO); test: Burst suppression model (Ching et al.) for cerebral metabolic rate of oxygen
Excerpt: A burst suppression model, as described in Ching et al., PNAS, 109(8): 3095-3100, (2012), will be used to determine the effect of D-Arg-2′,6′-Dmt-Lys-Phe-NH2 on CMRO. A range of 10^−9 to 10^−6 molar concentration of D-Arg-2′,6′-Dmt-Lys-Phe-NH2 will be assayed and compared to untreated and control peptide assays.

Chain of mu-opioid receptor (P35372 whole entry, species assumed): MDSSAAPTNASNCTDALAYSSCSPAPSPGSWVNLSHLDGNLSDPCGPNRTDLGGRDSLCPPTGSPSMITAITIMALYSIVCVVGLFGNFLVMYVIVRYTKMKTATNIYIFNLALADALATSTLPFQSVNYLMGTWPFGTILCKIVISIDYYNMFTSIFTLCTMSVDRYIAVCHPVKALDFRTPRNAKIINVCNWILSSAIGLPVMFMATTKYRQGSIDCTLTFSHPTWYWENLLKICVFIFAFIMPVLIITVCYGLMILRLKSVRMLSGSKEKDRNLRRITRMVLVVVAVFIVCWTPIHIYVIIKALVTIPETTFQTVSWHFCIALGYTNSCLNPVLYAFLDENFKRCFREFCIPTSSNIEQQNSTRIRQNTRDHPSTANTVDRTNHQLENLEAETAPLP

Substance	mu-opioid receptor agonist activity (mu-opioid receptor)	penetration of the plasma membrane [1]	CMRO ([2]; 10^−9 to 10^−6 molar, compared to untreated and control peptide assays)	cerebral metabolism / neuronal cellular and network function ([2]; burst suppression model, FIG. 1)
Tyr-D-Arg-Phe-Lys-NH2	has mu-opioid receptor agonist activity			
F[dR]FK-NH2	does not have mu-opioid receptor agonist activity			
2′,6′-Dmt-D-Arg-Phe-Lys-NH2		readily penetrates the plasma membrane of several mammalian cell types in an energy-independent manner		
D-Arg-2′,6′-Dmt-Lys-Phe-NH2	does not have mu-opioid receptor agonist activity		increase in CMRO	increase in cerebral metabolism and/or a restoration of neuronal cellular and network function
